From patent US7414061B2, “Aryl-isoxazol-4-yl-imidazole derivatives” (Hoffmann-La Roche Inc., priority 2005, dated 2008)
Read-outs that look alike come from different tables or passages of the source.

Target: T1, GABA A receptor α5β3γ2 (hα5) (Homo sapiens, UniProt P18507+P31644)
T1 construct: expressed in transfected cells; host or cells: HEK293 (transiently transfected), membrane preparation
Assay: [3H]flumazenil competition binding assay, human GABA A α5β3γ2
Protocol: The affinity of compounds at GABA A receptor subtypes was measured by competition for [3H]flumazenil (85 Ci/mmol; Roche) binding to HEK293 cells expressing rat (stably transfected) or human (transiently transfected) receptors of composition α1β3γ2, α2β3γ2, α3β3γ2 and α5β3γ2.
Cell pellets were suspended in Krebs-tris buffer (4.8 mM KCl, 1.2 mM CaCl2, 1.2 mM MgCl2, 120 mM NaCl, 15 mM Tris; pH 7.5; binding assay buffer), homogenized by polytron for ca. 20 sec on ice and centrifuged for 60 min at 4° C. (50000 g; Sorvall, rotor: SM24=20000 rpm). The cell pellets were resuspended in Krebs-tris buffer and homogenized by polytron for ca. 15 sec on ice. Protein was measured (Bradford method, Bio-Rad) and aliquots of 1 mL were prepared and stored at −80° C.
Radioligand binding assays were carried out in a volume of […] (96-well plates) which contained […] of cell membranes, [3H]flumazenil at a concentration of 1 nM for α1, α2, α3 subunits and 0.5 nM for α5 subunits and the test compound in the range of […]. Nonspecific binding was defined by 10^−5 M diazepam and typically represented less than 5% of the total binding. Assays were incubated to equilibrium for 1 hour at 4° C. and harvested onto GF/C uni-filters (Packard) by filtration using a Packard harvester and washing with ice-cold wash buffer (50 mM Tris; pH 7.5). After drying, filter-retained radioactivity was detected by liquid scintillation counting. Ki values were calculated using Excel-Fit (Microsoft) and are the means of two determinations.

[1] = displacement of [3H]flumazenil (0.5 nM) from HEK293 cell membranes expressing α5β3γ2, means of two determinations, read-out: Ki[nM] hα5

Row | Ki [1] | Ki | Compound
1 | 21.7 nM | – | Cc1onc(-c2ccccc2)c1-c1cn(-c2ccccc2)cn1 [Example 2, 5-Methyl-3-phenyl-4-(1-phenyl-1H-imidazol-4-yl)-isoxazole]
2 | 29.6 nM | – | Cc1onc(-c2ccccc2)c1-c1cn(-c2ccc(F)cc2)cn1 [Example 3, 4-[1-(4-Fluoro-phenyl)-1H-imidazol-4-yl]-5-methyl-3-phenyl-isoxazole]
3 | 33.1 nM | – | Cc1onc(-c2ccccc2)c1-c1cn(-c2cccc(F)c2)cn1 [Example 4, 4-[1-(3-Fluoro-phenyl)-1H-imidazol-4-yl]-5-methyl-3-phenyl-isoxazole]
4 | 29.1 nM | – | Cc1onc(-c2ccccc2)c1-c1cn(-c2cccc(Cl)c2)cn1 [Example 5, 4-[1-(3-Chloro-phenyl)-1H-imidazol-4-yl]-5-methyl-3-phenyl-isoxazole]
5 | 30.9 nM | – | Cc1onc(-c2ccccc2)c1-c1cn(-c2cccc(Br)c2)cn1 [Example 7, 4-[1-(3-Bromo-phenyl)-1H-imidazol-4-yl]-5-methyl-3-phenyl-isoxazole]
6 | 25.5 nM | – | CCCc1ccc(-n2cnc(-c3c(-c4ccccc4)noc3C)c2)cc1 [Example 9, 5-Methyl-3-phenyl-4-[1-(4-propyl-phenyl)-1H-imidazol-4-yl]-isoxazole]
7 | 20.4 nM | – | Cc1onc(-c2ccccc2)c1-c1cn(-c2cccc(C(F)(F)F)c2)cn1 [Example 10, 5-Methyl-3-phenyl-4-[1-(3-trifluoromethyl-phenyl)-1H-imidazol-4-yl]-isoxazole]
8 | 15.1 nM | – | COC(=O)c1cccc(-n2cnc(-c3c(-c4ccccc4)noc3C)c2)c1 [Example 11, 3-[4-(5-Methyl-3-phenyl-isoxazol-4-yl)-imidazol-1-yl]-benzoic acid methyl ester]
9 | 5.5 nM | – | CC(=O)c1ccc(-n2cnc(-c3c(-c4ccccc4)noc3C)c2)cc1 [Example 12, 1-{4-[4-(5-Methyl-3-phenyl-isoxazol-4-yl)-imidazol-1-yl]-phenyl}-ethanone]
10 | 11.9 nM | – | Cc1onc(-c2ccccc2)c1-c1cn(-c2ccc([N+](=O)[O-])cc2)cn1 [Example 13, 5-Methyl-4-[1-(4-nitro-phenyl)-1H-imidazol-4-yl]-3-phenyl-isoxazole]
11 | 30.7 nM | – | Cc1onc(-c2ccccc2)c1-c1cn(-c2ccc(C(F)(F)F)cc2)cn1 [Example 14, 5-Methyl-3-phenyl-4-[1-(4-trifluoromethyl-phenyl)-1H-imidazol-4-yl]-isoxazole]
12 | 15.1 nM | – | Cc1onc(-c2ccccc2)c1-c1cn(-c2ccc(C#N)cc2)cn1 [Example 16, 4-[4-(5-Methyl-3-phenyl-isoxazol-4-yl)-imidazol-1-yl]-benzonitrile]
13 | 27 nM | – | Cc1onc(-c2ccccc2)c1-c1cn(-c2cccc(C#N)c2)cn1 [Example 17, 3-[4-(5-Methyl-3-phenyl-isoxazol-4-yl)-imidazol-1-yl]-benzonitrile]
14 | 21 nM | – | COc1ccc(-n2cnc(-c3c(-c4ccccc4)noc3C)c2)cc1 [Example 18, 4-[1-(4-Methoxy-phenyl)-1H-imidazol-4-yl]-5-methyl-3-phenyl-isoxazole]
15 | 28.7 nM | – | CCOc1ccc(-n2cnc(-c3c(-c4ccccc4)noc3C)c2)cc1 [Example 19, 4-[1-(4-Ethoxy-phenyl)-1H-imidazol-4-yl]-5-methyl-3-phenyl-isoxazole]
16 | 32.4 nM | – | CCOc1ccccc1-n1cnc(-c2c(-c3ccccc3)noc2C)c1 [Example 20, 4-[1-(2-Ethoxy-phenyl)-1H-imidazol-4-yl]-5-methyl-3-phenyl-isoxazole]
17 | 31.5 nM | – | CSc1ccc(-n2cnc(-c3c(-c4ccccc4)noc3C)c2)cc1 [Example 21, 5-Methyl-4-[1-(4-methylsulfanyl-phenyl)-1H-imidazol-4-yl]-3-phenyl-isoxazole]
18 | 19.3 nM | – | Cc1onc(-c2ccccc2)c1-c1cn(-c2ccccn2)cn1 [Example 32, 2-[4-(5-Methyl-3-phenyl-isoxazol-4-yl)-imidazol-1-yl]-pyridine]

Second part, the compound before the results:

Row | Compound | Ki [1] | Ki
19 | 1-{4-(4-[5-Ethyl-3-(4-fluoro-phenyl)-isoxazol-4-yl]-imidazol-1-yl}-phenyl)-ethanone [Example 132] | 4.7 nM | –
20 | 4-{4-[3-(3-Fluoro-phenyl)-5-methyl-isoxazol-4-yl]-imidazol-1-yl}-N-[2-(1H-imidazol-4-yl)-ethyl]-benzamide [Example 104] | 31.5 nM | –
21 | 5-Ethyl-4-[1-(4-nitro-phenyl)-1H-imidazol-4-yl]-3-phenyl-isoxazole [Example 31] | 5 nM | –
22 | Cc1onc(-c2ccccc2)c1-c1cn(-c2cc(F)cc(F)c2)cn1 [Example 24, 4-[1-(3,5-Difluoro-phenyl)-1H-imidazol-4-yl]-5-methyl-3-phenyl-isoxazole] | 29 nM | –
23 | CCc1onc(-c2ccccc2)c1-c1cn(-c2ccc(C(C)=O)cc2)cn1 [Example 30, 1-{4-[4-(5-Ethyl-3-phenyl-isoxazol-4-yl)-imidazol-1-yl]-phenyl}-ethanone] | 9.9 nM | –
24 | Cc1onc(-c2ccccc2)c1-c1cn(-c2ncccn2)cn1 [Example 33, 2-[4-(5-Methyl-3-phenyl-isoxazol-4-yl)-imidazol-1-yl]-pyrimidine] | 15 nM | –
25 | CC(=O)c1ccc(-n2cnc(-c3c(-c4ccccc4F)noc3C)c2)cc1 [Example 36, 1-(4-{4-[3-(2-Fluoro-phenyl)-5-methyl-isoxazol-4-yl]-imidazol-1-yl}-phenyl)-ethanone] | 7.8 nM | –
26 | COc1ccc(-n2cnc(-c3c(-c4ccccc4F)noc3C)c2)cc1 [Example 38, 3-(2-Fluoro-phenyl)-4-[1-(4-methoxy-phenyl)-1H-imidazol-4-yl]-5-methyl-isoxazole] | 24 nM | –
27 | Cc1onc(-c2ccccc2F)c1-c1cn(-c2ncccn2)cn1 [Example 39, 2-{4-[3-(2-Fluoro-phenyl)-5-methyl-isoxazol-4-yl]-imidazol-1-yl}-pyrimidine] | 18.3 nM | –
28 | CC(=O)c1ccc(-n2cnc(-c3c(-c4ccc(F)cc4)noc3C)c2)cc1 [Example 46, 1-(4-{4-[3-(4-Fluoro-phenyl)-5-methyl-isoxazol-4-yl]-imidazol-1-yl}-phenyl)-ethanone] | 4.7 nM | –
29 | Cc1onc(-c2ccc(F)cc2)c1-c1cn(-c2ccc([N+](=O)[O-])cc2)cn1 [Example 47, 3-(4-Fluoro-phenyl)-5-methyl-4-[1-(4-nitro-phenyl)-1H-imidazol-4-yl]-isoxazole] | 16.6 nM | –
30 | Cc1onc(-c2ccc(F)cc2)c1-c1cn(-c2ncccn2)cn1 [Example 48, 2-{4-[3-(4-Fluoro-phenyl)-5-methyl-isoxazol-4-yl]-imidazol-1-yl}-pyrimidine] | 17.6 nM | –
31 | CC(=O)c1ccc(-n2cnc(-c3c(-c4ccc(Br)cc4)noc3C)c2)cc1 [Example 49, 1-(4-{4-[3-(4-Bromo-phenyl)-5-methyl-isoxazol-4-yl]-imidazol-1-yl}-phenyl)-ethanone] | 9.1 nM | –
32 | Cc1onc(-c2ccc(Br)cc2)c1-c1cn(-c2ccc([N+](=O)[O-])cc2)cn1 [Example 50, 3-(4-Bromo-phenyl)-5-methyl-4-[1-(4-nitro-phenyl)-1H-imidazol-4-yl]-isoxazole] | 21.6 nM | –
33 | Cc1onc(-c2ccc(Br)cc2)c1-c1cn(-c2ncccn2)cn1 [Example 51, 2-{4-[3-(4-Bromo-phenyl)-5-methyl-isoxazol-4-yl]-imidazol-1-yl}-pyrimidine] | 28.5 nM | –
34 | CC(=O)c1ccc(-n2cc(-c3c(-c4ccccc4)noc3C)nc2COCc2ccccc2)cc1 [Example 62, 1-{4-[2-Benzyloxymethyl-4-(5-methyl-3-phenyl-isoxazol-4-yl)-imidazol-1-yl]-phenyl}-ethanone] | 5.4 nM | –
35 | Cc1onc(-c2ccccc2)c1-c1cn(-c2ccc([N+](=O)[O-])cc2)c(COCc2ccccc2)n1 [Example 63, 4-[2-Benzyloxymethyl-1-(4-nitro-phenyl)-1H-imidazol-4-yl]-5-methyl-3-phenyl-isoxazole] | 14.4 nM | –
36 | Cc1onc(-c2ccccc2)c1-c1cn(-c2ccc(C(F)(F)F)cc2)c(COCc2ccccc2)n1 [Example 64, 4-[2-Benzyloxymethyl-1-(4-trifluoromethyl-phenyl)-1H-imidazol-4-yl]-5-methyl-3-phenyl-isoxazole] | 14.7 nM | –
37 | Cc1onc(-c2ccccc2)c1-c1cn(-c2ccc(C#N)cc2)c(COCc2ccccc2)n1 [Example 65, 4-[2-Benzyloxymethyl-4-(5-methyl-3-phenyl-isoxazol-4-yl)-imidazol-1-yl]-benzonitrile] | 19.1 nM | –
38 | Cc1onc(-c2ccccc2)c1-c1cn(-c2ncccn2)c(COCc2ccccc2)n1 [Example 66, 2-[2-Benzyloxymethyl-4-(5-methyl-3-phenyl-isoxazol-4-yl)-imidazol-1-yl]-pyrimidine] | 6.7 nM | –
39 | Cc1onc(-c2ccccc2)c1-c1cn(-c2ccc(C(=O)NCC3CC3)cc2)cn1 [Example 71, N-Cyclopropylmethyl-4-[4-(5-methyl-3-phenyl-isoxazol-4-yl)-imidazol-1-yl]-benzamide] | 16.7 nM | –
40 | C#CCNC(=O)c1ccc(-n2cnc(-c3c(-c4ccccc4)noc3C)c2)cc1 [Example 72, 4-[4-(5-Methyl-3-phenyl-isoxazol-4-yl)-imidazol-1-yl]-N-prop-2-ynyl-benzamide] | – | 13.2 nM
